PMC2861366 (Biochemistry, 2010)
“Also recorded” adds a separate entry of the source.

Legend:
[1] = tested on: χ subunit of DNA polymerase III holoenzyme; test: ITC binding to χ subunit; set-up: species or system E. coli; conditions: 25°C; for K, observed association equilibrium constant: buffer C (10 mM cacodylate, pH 7.0, 25% glycerol), 20 mM NaCl
PriA helicase = test: ITC binding to PriA helicase; set-up: species or system E. coli; conditions: 25°C; for binding detected by ITC (in words): 0.2 M NaCl, same protein and peptide concentrations as with WP9
[2] = tested on: χ subunit of DNA polymerase III holoenzyme; conditions: SSB prebound to ssDNA, low salt (5mM NaCl); cited from earlier work
[3] = buffer C, pH 7.0, 200 mM NaCl, WP9: averaged from two titrations
[4] = buffer T (10 mM Tris, pH 7.5, 10% glycerol), 20 mM NaCl
[5] = buffer C (10 mM cacodylate, pH 7.0, 25% glycerol), 20 mM NaCl

| Substance | K, observed association equilibrium constant [1] | K, observed association equilibrium constant (PriA helicase; [3]) | K, observed association equilibrium constant (PriA helicase; [4]) | K, observed association equilibrium constant (PriA helicase; [5]) | binding detected by ITC (in words) ([1]; 0.2 M NaCl, buffer C) | binding detected by ITC (in words) (PriA helicase; buffer C) | further results |
| --- | --- | --- | --- | --- | --- | --- | --- |
| MDFDDDIPF [P9] | (1.6±0.4)×10^6 M^−1 | (1.8±0.6)×10^5 M^−1 | (2.0±0.3)×10^6 M^−1 | – | – | – | – |
| PSNEPPMDFDDDIPF [P15] | (1.5±0.2)×10^6 M^−1 | (3.6±0.2)×10^5 M^−1 | (1.6±0.4)×10^6 M^−1 | (2.7±0.2)×10^6 M^−1 | – | – | – |
| SSB: E. coli single stranded DNA binding protein, homotetramer | – | – | – | – | – | – | affinity of χ for SSB in the presence of ssDNA [2]: (7.4±1.0)×10^6 M^−1; binding detected by ITC (in words) ([1]; 0.02 M NaCl): too weak to determine its binding parameters; also recorded: Weak (see text) |
| WDFMDDPFID [WP9r] | – | – | – | – | No binding can be detected | No binding can be detected | – |
| WMDFDDDISF [WP9-113] | – | – | – | – | No binding can be detected | No binding can be detected | – |
| WP9: modified P9 peptide containing a Trp residue on the N terminal side (WMDFDDDIPF) | (1.2±0.1)×10^6 M^−1 | (2.3±0.3)×10^5 M^−1 | – | (1.6±0.2)×10^6 M^−1 | – | – | – |
